SMILES strings stand for the structures.

T1 sequence (P47747 whole entry): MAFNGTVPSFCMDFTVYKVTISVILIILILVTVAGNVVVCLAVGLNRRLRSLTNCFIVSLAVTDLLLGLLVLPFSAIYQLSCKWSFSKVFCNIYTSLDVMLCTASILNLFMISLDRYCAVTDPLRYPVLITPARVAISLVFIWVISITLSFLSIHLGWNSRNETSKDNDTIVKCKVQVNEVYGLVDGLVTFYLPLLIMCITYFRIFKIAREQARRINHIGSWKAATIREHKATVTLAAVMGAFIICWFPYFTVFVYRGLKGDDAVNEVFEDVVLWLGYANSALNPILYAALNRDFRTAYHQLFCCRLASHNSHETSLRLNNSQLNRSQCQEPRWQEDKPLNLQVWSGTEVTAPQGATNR

One series concerns the target T1, histamine H2 receptor (Cavia porcellus, UniProt P47747).
T1 construct: guinea pig's enucleated atrium; from tissue; host or cells: guinea pig isolated ("enucleated") atrium
Briefly: inhibition of the palpitation number of guinea pig's enucleated atrium (histamine antagonism). Type of series: cell-based. Particulars: compounds (I) as the oxalates. An excerpt:
The pA2 value is defined as a negative logarithm of the concentratio
of the compound (I) required to shift the doseresponse of histamine to th
high concentration side by 2fold. [Ariens, E.J., Molecular Pharmacology,
(1964), Academic Press, New York and London].
For the compound `Cc1cc(CSCCNC(=O)c2ccc(S(N)(=O)=O)cc2)sc1CN1CCCC1` [Test No. 10], the Kb (in general, the affinity of an antagonist, worked out from how it opposes an agonist) is 2.19 µM. The same measure, in the same setting: to `O=C(NCCSCc1ccc(CN2CCCC2)s1)c1ccc([N+](=O)[O-])cc1` [Test No. 9] belongs 0.912 µM; to `CN(C)Cc1ccc(CSCCNC(=O)c2ccc(S(N)(=O)=O)cc2)o1` [Test No. 7], 0.151 µM; to `CN(C)Cc1ccc(CSCCNC=O)o1` [Test No. 6], 1.86 µM. In turn, `CC(C)c1cc(CN2CCCC2)sc1CSCCNC(=O)c1cccnc1` [Test No. 11] gave a Kb of 0.501 µM.

`COC(=O)c1ccc(C(=O)NCCSCc2ccc(CN(C)C)o2)cc1` [Test No. 4] showed a Kb of 0.468 µM. Regarding `Cc1cc(CSCCNC(=O)c2ccc([N+](=O)[O-])cc2)oc1CN1CCCC1` [Test No. 12], the Kb was 0.851 µM. Same read-out and setting: to `COC(=O)c1ccc(C(=O)NCCSCc2ccc(CN3CCCC3)s2)cc1` belongs 0.55 µM.

Compound `CC=CC=CC(=O)NCCSCc1ccc(CN(C)C)o1` [Test No. 5] showed a Kb of 1.91 µM.

Another series concerns gastric acid secretion. Description: gastric acid secretion inhibiting activity in Donryu male rats (pH value in the stomach). Format: in vivo. As to conditions: Rattus norvegicus, oxalate.
Turning to `CN(C)Cc1ccc(CSCCNC(=O)c2ccc(S(N)(=O)=O)cc2)o1.O=C(O)C(=O)O` [N-[2-[[(5-dimethylaminomethyl-2-furyl)-methyl]thio]ethyl]-4-sulfamoylbenzamide oxalate], the ED50 (in general, the dose at which the effect has come halfway, by size or by number of responders) came to 2.54 mg/kg.

Test system in a further series: not listed separately
Briefly: acute toxicity in mice. As to conditions: mouse, in vivo, iv, oxalate, read-out: acute toxicity LD50 i.v.
For `CN(C)Cc1ccc(CSCCNC(=O)c2ccc(S(N)(=O)=O)cc2)o1.O=C(O)C(=O)O` [N-[2-[[(5-dimethylaminomethyl-2-furyl)-methyl]thio]ethyl]-4-sulfamoylbenzamide oxalate], the LD50 (as a rule, the dose expected to kill half of the subjects tested) was 150 mg/kg.

The series is the same for the next values; noted with them: mouse, in vivo, po, oxalate, read-out: acute toxicity LD50 p.o.
On to `CN(C)Cc1ccc(CSCCNC(=O)c2ccc(S(N)(=O)=O)cc2)o1.O=C(O)C(=O)O` [N-[2-[[(5-dimethylaminomethyl-2-furyl)-methyl]thio]ethyl]-4-sulfamoylbenzamide oxalate], for which the LD50 is over 1000 mg/kg.

The record behind these values is patent US4318858A, “Thioethylamide derivatives” (Shionogi & Co., Ltd., priority 1979, dated 1982).
